The source of these data is ChEMBL document CHEMBL5214885, “PROTACs to address the challenges facing small molecule inhibitors” (Eur J Med Chem, 2021).

Test [1] concerns the target Microtubule-associated protein tau (Homo sapiens, UniProt P10636). In words: Binding affinity to N-terminal His-tagged recombinant human Tau40 expressed in Escherichia coli Rosetta (DE3) assessed as dissociation constant incubated for 0.5 hrs by fluorescence polarization assay.
Test [2] concerns the target Protein cereblon/Bcl-2-like protein 1 (Homo sapiens, UniProt Q07817+Q96SW2). In words: PROTAC activity at CRBN/BCL-XL in human MOLT-4 cells assessed as induction of BCL-XL degradation incubated for 16 hrs by Western blot analysis. Type of test: cell-based.

Each structure is given as a SMILES string.

Sequence of Protein cereblon/Bcl-2-like protein 1 (Q07817 whole entry): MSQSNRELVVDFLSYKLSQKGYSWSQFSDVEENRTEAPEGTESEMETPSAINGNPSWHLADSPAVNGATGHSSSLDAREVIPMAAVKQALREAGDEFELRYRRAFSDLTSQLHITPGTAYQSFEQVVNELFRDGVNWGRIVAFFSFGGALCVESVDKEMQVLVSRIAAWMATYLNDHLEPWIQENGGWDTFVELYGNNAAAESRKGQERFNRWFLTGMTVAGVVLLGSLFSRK
Sequence of Protein cereblon/Bcl-2-like protein 1 (Q96SW2 whole entry): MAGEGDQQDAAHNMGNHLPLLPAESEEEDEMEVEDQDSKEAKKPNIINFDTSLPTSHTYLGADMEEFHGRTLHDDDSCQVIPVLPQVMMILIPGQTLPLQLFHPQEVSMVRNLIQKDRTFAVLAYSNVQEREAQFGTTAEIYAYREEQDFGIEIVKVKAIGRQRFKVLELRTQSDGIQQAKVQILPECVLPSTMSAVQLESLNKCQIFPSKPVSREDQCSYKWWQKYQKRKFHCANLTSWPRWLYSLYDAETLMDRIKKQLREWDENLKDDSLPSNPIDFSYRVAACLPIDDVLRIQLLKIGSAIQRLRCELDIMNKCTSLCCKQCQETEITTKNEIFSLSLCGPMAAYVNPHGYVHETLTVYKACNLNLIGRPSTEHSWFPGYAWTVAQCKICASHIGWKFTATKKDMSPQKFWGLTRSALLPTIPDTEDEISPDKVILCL
Sequence of Microtubule-associated protein tau (P10636 whole entry): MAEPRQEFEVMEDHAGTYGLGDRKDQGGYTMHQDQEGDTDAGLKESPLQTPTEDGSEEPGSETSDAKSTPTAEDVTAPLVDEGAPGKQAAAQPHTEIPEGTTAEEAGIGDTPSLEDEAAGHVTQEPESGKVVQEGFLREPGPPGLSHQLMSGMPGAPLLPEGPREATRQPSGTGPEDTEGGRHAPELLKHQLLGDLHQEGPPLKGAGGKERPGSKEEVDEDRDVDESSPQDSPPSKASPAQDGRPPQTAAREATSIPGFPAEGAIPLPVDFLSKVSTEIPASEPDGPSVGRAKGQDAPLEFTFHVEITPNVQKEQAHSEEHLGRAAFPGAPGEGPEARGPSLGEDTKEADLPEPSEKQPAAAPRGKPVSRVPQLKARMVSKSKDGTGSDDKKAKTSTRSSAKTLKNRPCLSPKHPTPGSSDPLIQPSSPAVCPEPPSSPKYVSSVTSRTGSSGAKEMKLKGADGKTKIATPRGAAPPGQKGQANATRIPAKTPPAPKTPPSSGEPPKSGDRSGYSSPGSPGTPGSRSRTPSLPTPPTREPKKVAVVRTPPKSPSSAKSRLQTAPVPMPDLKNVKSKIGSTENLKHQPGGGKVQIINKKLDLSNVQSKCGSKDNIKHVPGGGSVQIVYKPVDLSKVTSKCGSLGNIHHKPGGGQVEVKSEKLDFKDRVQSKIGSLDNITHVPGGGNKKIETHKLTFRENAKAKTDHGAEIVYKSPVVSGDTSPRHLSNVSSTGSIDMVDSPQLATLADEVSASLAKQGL

Consider `CC[C@H](C)[C@H](NC(=O)[C@H](Cc1ccc(O)cc1)NC(=O)[C@@H]1CCCN1C(=O)[C@H](C)NC(=O)[C@H](CC(C)C)NC(=O)[C@H](C)NC(=O)[C@H](CO)NC(=O)CNC(=O)[C@H](CO)NC(=O)CNC(=O)CNC(=O)[C@H](CCC(N)=O)NC(=O)[C@H](CCC(=O)O)NC(=O)[C@H](CC(=O)O)NC(=O)[C@H](C)NC(=O)[C@@H](NC(=O)[C@H](C)NC(=O)[C@H](CC(=O)O)NC(=O)[C@H](CCC(N)=O)NC(=O)[C@H](Cc1ccc(O)cc1)NC(=O)[C@H](CCC(N)=O)NC(=O)[C@H](CCC(N)=O)NC(=O)[C@@H](N)Cc1ccc(O)cc1)[C@@H](C)O)C(=O)N1CCC[C@H]1C(=O)N[C@H](CCCNC(=N)N)C(=O)N[C@H](CCCNC(=N)N)C(=O)N[C@H](CCCNC(=N)N)C(=O)N[C@H](CCCNC(=N)N)C(=O)N[C@H](CCCNC(=N)N)C(=O)N[C@H](CCCNC(=N)N)C(=O)N[C@H](CCCNC(=N)N)C(=O)N[C@H](CCCNC(=N)N)C(=O)O`, for which, in test [1], the Kd was 394 nM. Turning to `O=C1CCC(N2C(=O)c3cccc(NCCOCCOCc4cn(CCCC(=O)N5CCN(CC#Cc6ccc(OCCCc7sc(N8CCc9cccc(C(=O)Nc%10nc%11ccccc%11s%10)c9C8)nc7C(=O)O)c(F)c6)CC5)nn4)c3C2=O)C(=O)N1` (configuration not stated), in test [2], the EC50 came out at 50 nM.

By Kd is commonly meant the concentration at which binding is half-saturated. What is called EC50 is the midpoint of the concentration-response curve.
